Target: T1, human tyrosinase (Homo sapiens, UniProt P14679)
T1 construct: endogenous in cells; host or cells: SKMEL 188 human melanoma cell line (lysate)
T1 sequence (P14679 19-529): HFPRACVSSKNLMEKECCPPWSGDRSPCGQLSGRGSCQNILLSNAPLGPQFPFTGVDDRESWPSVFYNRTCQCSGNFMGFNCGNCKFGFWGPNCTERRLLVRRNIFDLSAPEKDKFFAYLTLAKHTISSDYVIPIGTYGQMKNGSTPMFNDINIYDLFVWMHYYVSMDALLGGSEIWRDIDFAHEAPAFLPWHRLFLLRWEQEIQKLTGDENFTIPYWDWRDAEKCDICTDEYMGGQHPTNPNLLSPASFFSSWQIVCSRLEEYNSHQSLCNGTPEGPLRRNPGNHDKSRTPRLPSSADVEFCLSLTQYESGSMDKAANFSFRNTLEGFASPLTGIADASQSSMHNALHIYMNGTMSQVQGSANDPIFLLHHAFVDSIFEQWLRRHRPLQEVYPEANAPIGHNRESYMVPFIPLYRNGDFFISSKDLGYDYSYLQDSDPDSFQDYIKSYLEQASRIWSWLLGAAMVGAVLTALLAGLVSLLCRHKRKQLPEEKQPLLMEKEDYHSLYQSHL
Assay: Tyrosinase (DOPA Oxidase) Assay Using Cell Lysate
Format: biochemical
Conditions: SKMEL 188 human melanoma cell lysate; L-DOPA 100 μg/ml; incubated 8 hrs; read at 405 nm
Method: 1. Tyrosinase (DOPA Oxidase) Assay Using Cell Lysate:
Human melanoma cell line, SKMEL 188 (licensed from Memorial Sloan-Kettering), is used in the cell lysate assay and the screen. In the assay, compounds and L-dihydroxyphenylalanine (L-DOPA) (100 μg/ml) are incubated with the cell lysates containing human tyrosinase for 8 hrs before the plates are read at 405 nm. Potency of the compounds in DOPA oxidase assay is correlated very well with that in tyrosine hydroxylase assay using ^3H-tyrosine as a substrate.

IC50: ~2000 nM
Compound: ON=C1CCC(c2ccc(O)cc2O)C1 (racemic) [Example 23, (±)-3-(2,4-Dihydroxyphenyl)cyclopentanone oxime]
